As a reminder, the IC50 is the point on the concentration scale where inhibition reaches its midpoint. Read a high IC50 as weaker potency in that assay.

Converted amounts (≈) assume the structure as drawn.

The test system of series [1] is Human cytomegalovirus (HCMV), strain AD-169. The series can be described thus: In vitro human cytomegalovirus inhibition (plaque) assay in MRC-5 cells. Type of series: cell-based. From the text:
(§1) Cells MRC-5, an immortalized line of diploid, human ([…]) embryonic lung cells were used. These can be obtained from the American Type Culture Collection, Rockville, Md.
Virus Human cytomegalovirus (HCMV), strain AD-169 were used. These can be obtained from the American Type Culture Collection, Rockville, Md.
Medium Growth medium for the MRC-5 cells consisted of Basal Medium Eagle (BME) (GIBCO BRL, Research Products Division, Life Technologies, Inc., Grand Island, N.Y. was the source of all media) with 10% fetal bovine serum (FBS) (Hyclone Laboratories, Logan Utah), 0.035% NaHCO3. Antibiotics were not used in the growth media. Test medium for dilution of HCMV and for preparation and dilution of compounds for the experiments was DMEM, 2% FBS, 0.1% NaHCO3, 50 μg gentamicin/ml.
All compounds were prepared and diluted to the concentrations indicated in test medium. Growth medium was decanted from established monolayers of MRC-5 cells in 24-well tissue culture plates (Corning Glass Works, Corning, N.Y.). One ml of virus, diluted in test medium, was placed in each well except those to be used for cell controls. One ml of sterile test medium was placed in each of these cell control wells. Virus was allowed to adsorb to the cells while plates were centrifuged at 2200 rpm for 30 minutes at room temperature. Medium was aspirated from each well of the plates and 0.8 ml of the proper compound dilution was placed in each of the test wells (2 wells/dilution). Test medium without compound was added (0.8 ml/well) to each cell control and virus control well. Plates were placed in an incubator at 37° C. in a moist atmosphere of 5% CO2, 95% air until plaques could be distinguished in the virus control wells. […] After 15 minutes, the stain was aspirated, the plates were rinsed in running tap water until the water was clear, and the plates were inverted and dried at room temperature. Plaques were counted by use of a dissecting microscope.
ED50 and CD50 values were calculated by regression analysis of the viral plaque data and the visual cell toxicity data, respectively. […] CD50 is the concentration halfway between those at which 100% and 0% cytotoxicity are seen.

A short description of series [2]: Visual cell toxicity in MRC-5 cells (HCMV assay). Type of series: cell-based. The settings on record: human, previous data, read-out: CD50 (cytotoxicity). How it is done:
as §1
All compounds were prepared and diluted to the concentrations indicated in test medium. Growth medium was decanted from established monolayers of MRC-5 cells in 24-well tissue culture plates (Corning Glass Works, Corning, N.Y.). One ml of virus, diluted in test medium, was placed in each well except those to be used for cell controls. One ml of sterile test medium was placed in each of these cell control wells. Virus was allowed to adsorb to the cells while plates were centrifuged at 2200 rpm for 30 minutes at room temperature. Medium was aspirated from each well of the plates and 0.8 ml of the proper compound dilution was placed in each of the test wells (2 wells/dilution). Test medium without compound was added (0.8 ml/well) to each cell control and virus control well. Plates were placed in an incubator at 37° C. in a moist atmosphere of 5% CO2, 95% air until plaques could be distinguished in the virus control wells. […] Plaques were counted by use of a dissecting microscope.
ED50 and CD50 values were calculated by regression analysis of the viral plaque data and the visual cell toxicity data, respectively. […]

For the next series, the target named is HSV-1 DNA polymerase (Human herpesvirus 1, UniProt P04293). Nature of the series: HSV DNA polymerase assay, HSV-1. The format is biochemical. The following applies: activated calf thymus DNA, 30 minutes at 37° C. How it is done: (§2) HSV DNA polymerases were assayed as described by Ostrander M., and Cheng Y. C., (1980) BIOCHEM. BIOPHYS. ACTA 609:232-245. The standard assay mixture (total volume 50 uL) contained 25 mM Tris-HCl pH 8, 10 mM MgCl2, 0.5 mM dithiothreitol, 0.5 mg/mL BSA, 200 mM KCl, 100 ug/mL activated calf thymus DNA, 0.1 mM each dATP, dCTP, dGTP, 5 uM [^3 H]dTTP (2 Ci/mmol), 4-5×10-^4 units of enzyme, and different drug concentrations. After incubation at 37° C. for 30 minutes, the reaction mixture was spotted on 2.4 cm Whatman GF/A glass fiber filter discs and trichloroacetic acid-insoluble radioactivity was measured.
HSV-1 DNA polymerase, sequence (P04293 whole entry): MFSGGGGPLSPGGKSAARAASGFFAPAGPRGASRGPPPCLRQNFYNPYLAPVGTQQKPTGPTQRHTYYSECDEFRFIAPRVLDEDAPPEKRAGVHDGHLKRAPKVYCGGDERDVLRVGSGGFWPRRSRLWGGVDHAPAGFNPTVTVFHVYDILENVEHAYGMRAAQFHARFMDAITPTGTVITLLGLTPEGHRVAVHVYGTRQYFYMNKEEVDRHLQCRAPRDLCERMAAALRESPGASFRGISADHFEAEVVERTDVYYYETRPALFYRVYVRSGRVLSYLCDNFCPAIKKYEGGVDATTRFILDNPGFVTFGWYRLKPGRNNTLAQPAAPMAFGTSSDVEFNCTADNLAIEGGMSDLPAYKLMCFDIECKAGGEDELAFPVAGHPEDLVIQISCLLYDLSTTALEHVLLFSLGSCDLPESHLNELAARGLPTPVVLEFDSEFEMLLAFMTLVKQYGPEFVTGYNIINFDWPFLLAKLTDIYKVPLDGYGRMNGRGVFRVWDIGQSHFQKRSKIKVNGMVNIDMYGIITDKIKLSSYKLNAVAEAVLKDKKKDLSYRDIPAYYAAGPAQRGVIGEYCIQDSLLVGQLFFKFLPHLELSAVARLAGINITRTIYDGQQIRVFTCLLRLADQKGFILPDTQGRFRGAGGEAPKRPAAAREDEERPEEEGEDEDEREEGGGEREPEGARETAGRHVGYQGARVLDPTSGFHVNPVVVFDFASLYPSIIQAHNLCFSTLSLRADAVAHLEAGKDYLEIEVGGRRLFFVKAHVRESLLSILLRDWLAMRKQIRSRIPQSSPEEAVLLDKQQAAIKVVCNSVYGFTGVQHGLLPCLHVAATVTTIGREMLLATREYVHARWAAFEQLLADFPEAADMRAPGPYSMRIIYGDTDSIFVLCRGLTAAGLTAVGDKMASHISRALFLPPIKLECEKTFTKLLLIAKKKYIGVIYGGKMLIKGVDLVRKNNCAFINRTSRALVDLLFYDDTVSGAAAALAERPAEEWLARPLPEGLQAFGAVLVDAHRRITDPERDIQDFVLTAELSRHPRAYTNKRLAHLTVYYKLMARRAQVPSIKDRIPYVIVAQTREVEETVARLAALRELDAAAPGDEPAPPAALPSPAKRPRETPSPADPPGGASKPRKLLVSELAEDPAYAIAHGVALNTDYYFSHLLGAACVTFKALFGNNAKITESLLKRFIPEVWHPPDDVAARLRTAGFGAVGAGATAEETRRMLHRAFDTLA
(§3) One unit of DNA polymerase activity is defined as the amount of enzyme which catalyzes the incorporation of 1 nanomol of dTMP into activated DNA/30 min. […] IC50 is that concentration (expressed in micromoles) of the novel oligonucleotide which results in 50% inhibition of the enzyme.

The target in series [3] is T1, HIV-2 reverse transcriptase (Human immunodeficiency virus type 2 subtype A, UniProt P04584).
T1 construct: HIV REVERSE TRANSCRIPTASE ASSAY
T1 sequence (P04584 613-1171 limits assumed): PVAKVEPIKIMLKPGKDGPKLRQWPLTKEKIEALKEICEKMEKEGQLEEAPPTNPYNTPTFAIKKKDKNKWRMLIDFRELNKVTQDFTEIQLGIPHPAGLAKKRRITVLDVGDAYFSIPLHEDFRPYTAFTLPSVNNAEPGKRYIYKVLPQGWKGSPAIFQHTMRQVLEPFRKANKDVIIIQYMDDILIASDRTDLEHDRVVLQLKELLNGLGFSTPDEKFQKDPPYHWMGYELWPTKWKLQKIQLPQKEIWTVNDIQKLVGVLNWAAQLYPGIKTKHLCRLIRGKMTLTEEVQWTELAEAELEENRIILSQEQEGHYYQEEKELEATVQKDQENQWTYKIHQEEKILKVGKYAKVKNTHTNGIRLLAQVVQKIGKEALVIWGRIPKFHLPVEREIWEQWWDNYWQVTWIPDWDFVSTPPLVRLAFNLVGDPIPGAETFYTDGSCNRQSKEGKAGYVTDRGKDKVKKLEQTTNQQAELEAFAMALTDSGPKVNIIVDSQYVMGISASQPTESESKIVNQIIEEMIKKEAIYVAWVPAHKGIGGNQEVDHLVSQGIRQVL
Nature of the series: HIV reverse transcriptase assay, HIV-2. The format is biochemical. The settings on record: RNA-dependent enzyme assay, 30 minutes at 37° C.

Another series has as its target T2, HSV-2 DNA polymerase (Human herpesvirus 2, UniProt P89453).
T2 sequence (P89453 1-1240): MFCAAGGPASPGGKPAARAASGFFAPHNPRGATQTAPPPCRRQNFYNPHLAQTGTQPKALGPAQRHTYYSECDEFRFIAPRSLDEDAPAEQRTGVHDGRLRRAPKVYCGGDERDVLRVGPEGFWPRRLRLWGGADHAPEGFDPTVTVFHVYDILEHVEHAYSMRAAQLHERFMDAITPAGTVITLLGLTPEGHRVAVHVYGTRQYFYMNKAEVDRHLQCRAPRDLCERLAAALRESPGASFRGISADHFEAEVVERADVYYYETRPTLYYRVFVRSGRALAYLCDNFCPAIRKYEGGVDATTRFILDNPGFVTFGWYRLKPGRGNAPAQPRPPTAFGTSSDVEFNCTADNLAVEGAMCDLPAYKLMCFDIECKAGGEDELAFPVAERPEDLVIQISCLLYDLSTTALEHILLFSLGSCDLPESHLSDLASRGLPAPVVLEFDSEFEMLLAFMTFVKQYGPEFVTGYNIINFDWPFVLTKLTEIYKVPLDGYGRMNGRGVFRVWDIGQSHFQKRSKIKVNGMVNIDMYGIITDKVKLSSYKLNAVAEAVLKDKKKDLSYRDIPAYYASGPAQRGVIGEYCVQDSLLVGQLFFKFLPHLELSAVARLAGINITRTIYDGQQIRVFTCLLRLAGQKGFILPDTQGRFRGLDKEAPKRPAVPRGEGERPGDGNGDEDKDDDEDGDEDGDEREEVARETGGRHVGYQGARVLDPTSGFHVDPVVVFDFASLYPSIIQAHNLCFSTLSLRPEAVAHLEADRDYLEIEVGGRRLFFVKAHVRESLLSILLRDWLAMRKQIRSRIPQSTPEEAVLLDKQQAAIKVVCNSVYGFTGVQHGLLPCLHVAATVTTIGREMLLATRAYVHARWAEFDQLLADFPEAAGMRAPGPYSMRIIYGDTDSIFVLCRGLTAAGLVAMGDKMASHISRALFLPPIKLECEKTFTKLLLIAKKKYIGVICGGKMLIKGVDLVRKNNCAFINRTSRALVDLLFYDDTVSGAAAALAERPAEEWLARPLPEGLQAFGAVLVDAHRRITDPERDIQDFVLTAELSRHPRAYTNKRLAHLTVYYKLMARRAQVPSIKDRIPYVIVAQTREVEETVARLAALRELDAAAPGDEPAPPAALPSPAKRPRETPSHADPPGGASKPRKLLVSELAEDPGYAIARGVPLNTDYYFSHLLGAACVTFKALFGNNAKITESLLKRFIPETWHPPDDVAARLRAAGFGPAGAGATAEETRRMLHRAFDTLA
The series can be described thus: HSV DNA polymerase assay, HSV-2. Type of series: biochemical. The settings on record: activated calf thymus DNA, 30 minutes at 37° C. On the procedure: as §2, §3

The target of series [4] is T3, HIV-1 reverse transcriptase (RT) (Human immunodeficiency virus type 1 group M subtype B, UniProt P04585).
T3 construct: as a 66 and 51 kDa protein dimer; made in house; host or cells: bacteria
Nature of the series: HIV reverse transcriptase assay, HIV-1. The format is biochemical. The following applies: RNA-dependent enzyme assay, 30 minutes at 37° C. On the procedure:
HIV-1 reverse transcriptase (RT) was expressed from a recombinant plasmid in bacteria as a 66 and 51 kDa protein dimer as described by D'Aquila R. T. and Summers W. C., (1989) J. ACQUIRED IMMUNE DEFIC SYNDR 2:579-587.
The standard reaction mixture for the RNA-dependent enzyme assays contained in a 50 uL volume: 50 mM Tris-HCl, pH 7.8, 50 mM KCl, 6 mM MgCl2, 0.1 mg/mL heat-inactivated bovine serum albumin, 1 mM dithiothreitol, 0.5 0D260 units/mL template-primer Poly(rC) oligo(dG)12-18, 10 uM [^3 H]dGTP and 3.3×10^-3 units of HIV-1 RT. A unit was defined as the amount of enzyme necessary to incorporate 1 nanomol of [^3 H]dTMP into the Poly(rA)-oligo(dT)10 template in 1.0 min at 37° C. The samples were incubated for 30 minutes at 37° C., and all reactions were carried out in the linear range. Aliquot of 40 uL were spotted on glass fiber filters (Whatman GF/A) and processed for determination of trichloroacetic acid-insoluble radioactivity as described by Cheng Y. C., Dutschman G. E., Bastow K. F., Sarngadharan M. G., and Ting R. Y. C. (1987) J. BIOL CHEM 262:2187-2189. Poly(rA)-oligo(dT)10was used as template-primer.
Table 4 indicates the results obtained in this assay with examplary oligonucleotides of the invention. The oligonucleotides are identified by their respective "compound number".

For the molecule `Nc1nc(O)c2ncn(COC(CO)CO)c2n1` [DHPG, Ganciclovir], the “# of plaques” value worked out at 39.5 in series [1] (0.32 μg/ml), 33.5 in series [1] (1.0 μg/ml), 10.5 in series [1] (3.2 μg/ml) and 0.0 in series [1] (10 μg/ml). Moreover, the “Therapeutic Index TI = CD50/ED50” value in series [1] (HCMV, MRC-5 cells) was greater than 588. For the same molecule, the inhibition at 0.32 µg/mL in series [1] (Human betaherpesvirus 5, AD169, MRC5, 0.32 μg/ml, read-out: % reduction (plaques)) is 14%. Also, the inhibition at 1 µg/mL in series [1] (Human betaherpesvirus 5, AD169, MRC5, 1.0 μg/ml, read-out: % reduction (plaques)) was 27%. Also, the inhibition at 3.2 µg/mL in series [1] (Human betaherpesvirus 5, AD169, MRC5, 3.2 μg/ml, read-out: % reduction (plaques)) is 77%. Further, the inhibition at 10 µg/mL in series [1] (Human betaherpesvirus 5, AD169, MRC5, 10 μg/ml, read-out: % reduction (plaques)) turned out to be 100%. In series [1] (Human betaherpesvirus 5, AD169, MRC5, regression analysis of viral plaque data, read-out: ED50 (plaques reduced to 50% of virus controls)), the EC50 amounted to 1.7 µg/mL (≈ 6.66 µM). Also, the CC50 in series [2] is greater than 1000 µg/mL.

For the molecule 5[dCyd3P(S)(O)]27dCyd [SdC28], the half-inhibitory concentration (IC50) at HSV-1 DNA polymerase worked out at 0.03 µM; in series [3], 0.071 ± 0.011 µM; at HSV-2 DNA polymerase, 0.09 µM; in series [4], 0.015 ± 0.004 µM.

The values are drawn from patent publication US5652359A, “Oligonucleotides containing n-methyl thiolated bases having antiviral activity” (Epoch Pharmaceuticals, Inc., priority 1993, dated 1997).
